According to the NIST ThermoML archive (doi:10.1021/je700260f):

Conditions: 333.15 K, Liquid, Vibrating tube method

FC(C(F)(F)F)C(F)(F)F [1,1,1,2,3,3,3-heptafluoropropane]
Conditions | mass density [kg/m3]
14224 kPa | 1356.7
14266 kPa | 1357
14291 kPa | 1357.2
14328 kPa | 1357.4
14371 kPa | 1357.7
14400 kPa | 1357.8
14435 kPa | 1358.2
14458 kPa | 1358.3
14483 kPa | 1358.5
14514 kPa | 1358.6
14545 kPa | 1358.8
14575 kPa | 1359.1
14609 kPa | 1359.3
14631 kPa | 1359.4
14665 kPa | 1359.7
14691 kPa | 1359.8
14717 kPa | 1360
14746 kPa | 1360.2
14768 kPa | 1360.3
14798 kPa | 1360.5
15205 kPa | 1363.1
15236 kPa | 1363.4
15290 kPa | 1363.8
15717 kPa | 1366.6
15745 kPa | 1366.7
15780 kPa | 1366.8
15812 kPa | 1367.1
15836 kPa | 1367.2
15868 kPa | 1367.4
15899 kPa | 1367.6
15926 kPa | 1367.8
16438 kPa | 1370.9
16464 kPa | 1371.3
16489 kPa | 1371.4
16519 kPa | 1371.5
16626 kPa | 1372.2
16683 kPa | 1372.5
16707 kPa | 1372.8
16730 kPa | 1372.7
16761 kPa | 1373
17906 kPa | 1379.9
17932 kPa | 1379.9
17962 kPa | 1380.3
17993 kPa | 1380.3
18015 kPa | 1380.5
18050 kPa | 1380.7
18080 kPa | 1380.9
18108 kPa | 1381
19508 kPa | 1388.9
19537 kPa | 1389
19563 kPa | 1389.2
19597 kPa | 1389.4
19624 kPa | 1389.6
19650 kPa | 1389.8
19677 kPa | 1389.8
20749 kPa | 1395.7
20777 kPa | 1395.9
20814 kPa | 1396
20842 kPa | 1396.2
20873 kPa | 1396.4
20901 kPa | 1396.5
20931 kPa | 1396.6
20957 kPa | 1396.9
20979 kPa | 1396.9
21008 kPa | 1397
21033 kPa | 1397.1
21063 kPa | 1397.3
21088 kPa | 1397.5
21120 kPa | 1397.5
21148 kPa | 1397.8
21172 kPa | 1397.9
21205 kPa | 1398
21229 kPa | 1398.2
21270 kPa | 1398.3
21296 kPa | 1398.6
21327 kPa | 1398.7
21360 kPa | 1398.9
21397 kPa | 1399.2
21645 kPa | 1400.3
21675 kPa | 1400.5
21704 kPa | 1400.7
21740 kPa | 1400.8
21764 kPa | 1401
21831 kPa | 1401.4
21897 kPa | 1401.7
21932 kPa | 1401.8
22798 kPa | 1406.2
22829 kPa | 1406.3
22856 kPa | 1406.5
22880 kPa | 1406.7
22918 kPa | 1406.7
22954 kPa | 1407
23854 kPa | 1411.4
25147 kPa | 1417.6
25181 kPa | 1417.7
25224 kPa | 1417.9
25251 kPa | 1417.9
25279 kPa | 1418.1
25312 kPa | 1418.3
25354 kPa | 1418.4
25387 kPa | 1418.6
25415 kPa | 1418.7
